Experimental data taken from ChEMBL document CHEMBL5126521, “Analgesic Opioid Ligand Discovery Based on Nonmorphinan Scaffolds Derived from Natural Sources” (J Med Chem, 2022).
Square brackets hold non-standard residues; d marks the D form. Peptide text beside a SMILES is read from it. Sar = CNCC(=O)O

Assays:
Mus musculus [1] = test: Antinociceptive activity in thermal hyperalgesia mouse model administered sc; format: functional
[2] = biological target: T1, Delta-type opioid receptor (Homo sapiens, UniProt P41143); test: Binding affinity to DOP (unknown origin)
Rattus norvegicus [3] = test: Antinociceptive activity in rat administered IT; format: functional
Mu-type opioid receptor [4] = biological target: Mu-type opioid receptor (Mus musculus, UniProt P42866); test: Antagonist activity at mouse vas deferns MOP; format: functional
Mu-type opioid receptor [5] = biological target: T2, Mu-type opioid receptor (Homo sapiens, UniProt P35372); test: Binding affinity to MOP (unknown origin)
Mus musculus [6] = test: Antinociceptive activity in mechanical allodynia mouse model administered sc; format: functional
Mu-type opioid receptor [7] = biological target: Mu-type opioid receptor (Rattus norvegicus, UniProt P33535); test: Agonist activity at recombinant rat MOP stably expressed in CHO-K1 cell membrane assessed as [35S]GTPgammaS binding; format: functional, cell membranes
[8] = biological target: T3, Kappa-type opioid receptor (Cavia porcellus, UniProt P41144); test: Displacement of [3H]U69593 from guinea pig brain membrane KOP incubated for 1 hr by scintillation counter analysis; format: cell membranes
Mus musculus [9] = test: Antinociceptive activity in po dosed mouse by tail flick assay; format: functional
[10] = Toxicity in po dosed mouse assessed as antinociceptive activity tolerance by tail flick assay; format: organism-based; conditions: in vivo
[11] = biological target: Delta-type opioid receptor (Rattus norvegicus, UniProt P33533); test: Agonist activity at recombinant rat DOP stably expressed in CHO-K1 cell membrane assessed as [35S]GTPgammaS binding; format: functional, cell membranes
[12] = Displacement of [3H]DPDPE from guinea pig brain membrane DOP incubated for 2.5 hr by scintillation counter analysis; format: cell membranes, Cavia porcellus
Mus musculus [13] = test: Antinociceptive activity in sc dosed mouse; format: functional
Mu-type opioid receptor [14] = biological target: T4, Mu-type opioid receptor (Cavia porcellus, UniProt P97266); test: Displacement of [3H]DAMGO from guinea pig brain membrane MOP incubated for 1 hr by scintillation counter analysis; format: cell membranes
[15] = Toxicity in sc dosed mouse assessed as antinociceptive activity tolerance; format: organism-based; conditions: in vivo
Mus musculus [16] = test: Antinociceptive activity in mouse administered IT; format: functional
[17] = Displacement of [3H]DPDPE from calf frontal cortex membrane Delta-type opioid receptor by competitive binding assay; format: cell membranes, Bos taurus
Rattus norvegicus [18] = species: Rattus norvegicus; test: Antinociceptive activity in rat; format: functional
Mu-type opioid receptor [19] = biological target: Mu-type opioid receptor (Bos taurus, UniProt P79350); test: Displacement of [3H]DAMGO from calf thalamus membrane MOP by competitive binding assay; format: cell membranes
[20] = biological target: Mu-type opioid receptor (Cavia porcellus) (UniProt P97266); test: (§1) Antagonist activity at guinea pig ileum MOP; format: functional, tissue-based; conditions: filed as antagonist
Mu-type opioid receptor [21] = biological target: T4, Mu-type opioid receptor; test: as §1; format: functional, tissue-based
Rattus norvegicus [22] = test: Antinociceptive activity in rat administered iv; format: functional
[23] = biological target: T3, Kappa-type opioid receptor; test: Displacement of [3H]U69593 from guinea pig cerebellum KOP by competitive binding assay; format: tissue-based
Mus musculus [24] = test: Antinociceptive activity in mouse administered po; format: functional
[25] = Toxicity in rat assessed as inhibition of gastrointestinal transit at 100 to 300 pmol icv or IT by charcoal meal test; conditions: in vivo, icv_or_intrathecal, dose 100-300 pmol
Rattus norvegicus [26] = test: Antinociceptive activity in rat administered sc; format: functional
Mus musculus [27] = test: Antinociceptive activity in ddY mouse assessed as tail-flick latency administered it by tail flick test; format: functional
Mus musculus [28] = test: Antinociceptive activity in Std-ddY mouse at 100 mmHg pressure administered icv by tail pressure test; format: functional
Mus musculus [29] = test: Antinociceptive activity in Std-ddY mouse at 100 mmHg pressure administered IT by tail pressure test; format: functional
Mus musculus [30] = test: Antinociceptive activity in ddY mouse assessed as tail-flick latency administered icv by tail flick test; format: functional
Mus musculus [31] = test: Antinociceptive activity in Std-ddY mouse at 100 mmHg pressure administered sc by tail pressure test; format: functional
Mus musculus [32] = test: Antinociceptive activity in Std-ddY mouse at 100 mmHg pressure administered po by tail pressure test; format: functional
Mus musculus [33] = species: Mus musculus; test: Antinociceptive activity in mouse by hot plate test
Mus musculus [34] = test: Antinociceptive activity in mouse administered sc by tail pressure test; format: functional
Mus musculus [35] = test: Antinociceptive activity in mouse assessed as tail-flick latency administered icv […]; format: functional
Mus musculus [36] = test: Antinociceptive activity in mouse administered icv; format: functional
Mus musculus [37] = species: Mus musculus; test: Antinociceptive activity in mouse by tail pressure test; format: functional; conditions: Mus musculus; read-out: ED50
Mus musculus [38] = test: Antinociceptive activity in mouse administered IT by tail pressure test; format: functional
Mus musculus [39] = test: Antinociceptive activity in mouse administered icv by tail pressure test; format: functional
Rattus norvegicus [40] = test: Antinociceptive activity in rat at 2.5 to 5 mg/kg, icv
Mus musculus [41] = test: Antinociceptive activity in mouse administered po by tail pressure test; format: functional
Mus musculus [42] = test: Antinociceptive activity in Kunming mouse assessed as tail flick response in warm water administered iv; format: functional
[43] = Stability in mouse serum assessed as half life; format: ADME, cell-free
Mu-type opioid receptor [44] = biological target: T2, Mu-type opioid receptor; test: Agonist activity at MOP (unknown origin) stably expressed in HEK293 cells assessed as forskolin stimulated cAMP accumulation incubated for 30 mins by radioactivity based scintillation counter analysis; format: functional, cell-based
[45] = biological target: T1, Delta-type opioid receptor; test: Displacement of [3H]DPDPE from DOP (unknown origin) stably expressed in HEK293 cells by liquid scintillation counter analysis; format: cell-based
Mu-type opioid receptor [46] = biological target: T2, Mu-type opioid receptor; test: Displacement of [3H]DAMGO from MOP (unknown origin) stably expressed in HEK293 cells by liquid scintillation counter analysis; format: cell-based
Mu-type opioid receptor [47] = biological target: T2, Mu-type opioid receptor; test: Agonist activity at MOP (unknown origin) stably expressed in HEK293 cells assessed as forskolin stimulated cAMP accumulation incubated for 30 mins by radioactivity based scintillation counter analysis relative to control; format: functional, cell-based; conditions: filed as agonist
[48] = Stability in mouse brain homogenate assessed as half life; format: ADME, tissue-based
Mus musculus [49] = test: Antinociceptive activity in Kunming mouse assessed tail flick response in warm water administered icv; format: functional

NCCCC[C@H](NC(=O)[C@H](Cc1ccccc1)NC(=O)[C@@H](CCCN=C(N)N)NC(=O)[C@@H](N)Cc1ccc(O)cc1)C(N)=O
ED50 (Mus musculus [1]): 0.06 pmol | Ki [2]: 19200 nM | ED50 (Rattus norvegicus [3]): 2.37 pmol | IC50 (Mu-type opioid receptor [4]): 781 nM | Ki (Mu-type opioid receptor [5]): 0.14 nM | ED50 (Mus musculus [6]): 4.2 pmol

CC[C@@H]1CN2CC[C@]3(O)c4c(cccc4OC)N[C@@H]3[C@@H]2C[C@@H]1/C(=C\OC)C(=O)OC
EC50 (Mu-type opioid receptor [7]): 250 nM | Ki [8]: 55 nM | ED50 (Mus musculus [9]): 1.3 mg/kg | ED50 [10]: 2.2 mg/kg | EC50 [11]: 1490 nM | Ki [12]: 16 nM | ED50 (Mus musculus [13]): 0.3 mg/kg | Ki (Mu-type opioid receptor [14]): 6.4 nM | ED50 [15]: 0.35 mg/kg

CC[C@@H]1CN2CC[C@]3(O)c4c(ccc(F)c4OC)N[C@@H]3[C@@H]2C[C@@H]1/C(=C\OC)C(=O)OC
EC50 (Mu-type opioid receptor [7]): 18 nM | Ki [8]: 29 nM | ED50 (Mus musculus [9]): 0.26 mg/kg | ED50 [10]: 0.45 mg/kg | EC50 [11]: 61 nM | Ki [12]: 7 nM | ED50 (Mus musculus [13]): 0.06 mg/kg | Ki (Mu-type opioid receptor [14]): 2.1 nM | ED50 [15]: 0.09 mg/kg

CN(CC(=O)O)C(=O)[C@H](Cc1ccccc1)NC(=O)[C@@H](CCCN=C(N)N)NC(=O)[C@@H](N)Cc1ccc(O)cc1 (H-Y[dR]F[Sar]-OH)
ED50 (Mus musculus [16]): 4.5 pmol | ED50 (Rattus norvegicus [3]): 18 pmol | Ki [17]: 562 nM | ED50 (Rattus norvegicus [18]): 4.1 pmol | Ki (Mu-type opioid receptor [19]): 0.5 nM | IC20 [20]: 21 nM | IC50 (Mu-type opioid receptor [21]): 6.9 nM | ED50 (Rattus norvegicus [22]): 0.8 µmol/kg | Ki [23]: > 10000 nM | ED50 (Mus musculus [24]): 26 µmol/kg | ED50 [25]: 0.053 mg/kg | ED50 (Rattus norvegicus [26]): 0.61 mg/kg

N=C(N)NCCC[C@@H](NC(=O)[C@@H](N)Cc1ccc(O)cc1)C(=O)N[C@@H](Cc1ccccc1)C(=O)NCCC(=O)O
ED50 (Mus musculus [27]): 0.3 pmol | ED50 (Mus musculus [28]): 3.1 pmol | ED50 (Mus musculus [29]): 0.5 pmol | ED50 (Mus musculus [30]): 1.3 pmol | ED50 (Mus musculus [31]): 0.8 µmol/kg | ED50 (Mus musculus [32]): 70.1 µmol/kg

CN1CC[C@]23c4c5ccc(O)c4O[C@H]2[C@@H](O)C=C[C@H]3[C@H]1C5 [MORPHINE]
ED50 (Mus musculus [33]): 11.3 µmol/kg | ED50 (Mus musculus [34]): 12.2 µmol/kg | ED50 (Rattus norvegicus [18]; Rattus norvegicus, read-out: ED50): 5.8 µmol/kg | ED50 (Mus musculus [35]): 17.3 nmol | ED50 (Rattus norvegicus [22]): 1.6 µmol/kg | ED50 (Mus musculus [36]): 8.7 nmol | ED50 (Mus musculus [37]): 77.2 µmol/kg | ED50 (Mus musculus [38]): 0.72 pmol | ED50 (Mus musculus [39]): 1.05 nmol | ED50 (Rattus norvegicus [40]): 169 µmol/kg

N=C(N)NCCC[C@@H](NC(=O)[C@@H](N)Cc1ccc(O)cc1)C(=O)N[C@@H](Cc1ccccc1)C(N)=O
ED50 (Mus musculus [41]): 103 µmol/kg | ED50 (Mus musculus [34]): 1 µmol/kg | IC50 (Mu-type opioid receptor [21]): 240 nM | ED50 (Mus musculus [36]): 0.21 nmol

C=C(C(N)=O)[C@@H](NC(=O)[C@H](Cc1c[nH]c2ccccc12)NC(=O)[C@@H](C)N(C)C(=O)[C@@H](N)Cc1c(C)cc(O)cc1C)c1ccco1
ED50 (Mus musculus [42]): 0.382 mg/kg | half-life [43]: ≥ 5 h | EC50 (Mu-type opioid receptor [44]): 0.0018 nM | Ki [45]: 33.3 nM | Ki (Mu-type opioid receptor [46]): 0.011 nM | Emax (Mu-type opioid receptor [47]): 98.3% | half-life [48]: ≥ 5 h | ED50 (Mus musculus [49]): 0.000695 µmol/kg
